Results taken from patent publication US20110105417A1, “Drug Conjugates” (The Curators of the University of Missouri, priority 2008, published 2011).

Columns and labels:
MDCK-WT cells = assay: Non-radioactive uptake study of B-10HD-ACV on MDCK-WT cells; type: in vitro ADME, dog; details: 200 μM; for Average uptake: DPBS pH 5.4, 90 minutes; for Relative fold uptake: relative to acyclovir
Description: Non-radioactive uptake studies were performed for the above prodrugs on MDCK-WT cells after growing them for 7 days. The medium was aspirated and the cells were washed 3 times after an interval of 5 minutes each with DPBS pH 5.4. […] Uptake was carried out for 90 minutes. Uptake was terminated using ice cold DPBS pH 5.4. The cells were then washed 2 times using distilled deionized water and lysed overnight at −80° C. with 500 uL of distilled deionized water in each well. The samples were analyzed using LC-MS/MS.

Caco-2 cells monolayer = assay: Non-radioactive cellular uptake study, Caco-2; details: 90 minutes (FIG. 4)
[1] = system: MDCK-MDR1 cell monolayers
Description: The medium was changed everyday after reaching confluence.
The experiments were carried out for 90 minutes.

MDCK-MDR1 cell monolayer = assay: Non-radioactive cellular uptake study, MDCK-MDR1; details: pH 5.5, 90 minutes (FIG. 2)

| SMILES | Average uptake (MDCK-WT cells) | Relative fold uptake (MDCK-WT cells) | increase of uptake compared to ACV (MDCK-MDR1 cell monolayer) | increase of uptake compared to ACV (Caco-2 cells monolayer) | further results |
| --- | --- | --- | --- | --- | --- |
| Nc1nc2c(ncn2COCCOC(=O)CCCCCCCCCO)c(=O)[nH]1 [10HD-ACV, 2-((2-amino-6-oxo-1,6-dihydropurin-9-yl)methoxy)ethyl 10-hydroxy decanoate] | 199.74 pmoles/mg protein/min | 43.73 | – | – | – |
| Nc1nc2c(ncn2COCCO)c(=O)[nH]1 [ACV, 9-(2-hydroxyethoxymethyl)guanine, reference compound] | 4.56 pmoles/mg protein/min | 1 | – | – | – |
| CCCCCCC(CCCCCCCCCCC(=O)OCCOCn1cnc2c(=O)[nH]c(N)nc21)OC(=O)CCCC[C@@H]1SC[C@@H]2NC(=O)N[C@@H]21 (stereo partly drawn) [B-12HS-ACV, Biotin-12-Hydroxystearicacid-ACV] | – | – | – | 8.3 times | – |
| Nc1nc2c(ncn2COCCOC(=O)CCCC[C@@H]2SC[C@@H]3NC(=O)N[C@@H]32)c(=O)[nH]1 [B-ACV, Biotin-ACV] | – | – | – | – | uptake in the presence of biotin versus in its absence [1]: significantly lesser |

More lines, main results first:

| Average uptake (MDCK-WT cells) | Relative fold uptake (MDCK-WT cells) | increase of uptake compared to ACV (MDCK-MDR1 cell monolayer) | SMILES | increase of uptake compared to ACV (Caco-2 cells monolayer) | further results |
| --- | --- | --- | --- | --- | --- |
| – | – | 9.5 times | CCCCCC[C@H](C/C=C\CCCCCCCC(=O)OCCOCn1cnc2c(=O)[nH]c(N)nc21)OC(=O)CCCC[C@@H]1SC[C@@H]2NC(=O)N[C@@H]21 [B-R-ACV, Biotin-Ricinoleic acid-Acyclovir] | – | – |
| – | – | four | CCCCCC[C@@H](O)C/C=C\CCCCCCCC(=O)OCCOCn1cnc2c(=O)[nH]c(N)nc21 [R-ACV, Ricinoleicacid-ACV] | 1.4 times | – |
